Reference: publication PMC12379159 (Journal of Natural Products, 2025)
Numbering of substitutions follows the chain as printed.

Columns and labels:
Gal4-hRORγ = molecular target: T1, Gal4-hRORγ (Homo sapiens, UniProt P51449); experiment: Gal4-RORγ mammalian one-hybrid luciferase assay; assay type: cell-based; conditions: HEK293 cells
T1 construct: Encodes for a hRORγ-LBD:Gal4-DBD fusion protein; expressed in transfected cells; host or cells: HEK293
T1 sequence (P51449 269-508 limits assumed): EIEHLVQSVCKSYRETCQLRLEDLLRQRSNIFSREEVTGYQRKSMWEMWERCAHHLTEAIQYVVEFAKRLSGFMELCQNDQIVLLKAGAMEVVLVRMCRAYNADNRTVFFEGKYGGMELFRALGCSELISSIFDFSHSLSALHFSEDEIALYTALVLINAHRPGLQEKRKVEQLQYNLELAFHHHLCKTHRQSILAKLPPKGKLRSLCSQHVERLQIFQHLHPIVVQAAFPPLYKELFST
Description: (§1) For luciferase assays, 8 × 10^6 HEK293 cells were seeded on 150 mm cell culture dishes and incubated for 5 h. Afterward, cells were transfected with the calcium phosphate coprecipitation method using 5 μg of the nuclear receptor (Gal4-hRORγ or full-length human RORγ), 5 μg of a luciferase reporter (pTK-MH100 × 4-LUC for Gal4-hRORγ experiments or RORE-LUC for full-length human RORγ experiments) and 3 μg eGFP-N1 (for assessing transfection efficiency) plasmid DNA and incubated overnight. […] The medium was changed the following day, and cells were further incubated for another four to 5 h before trypsin/EDTA was added to detach them from the dishes. […] RLUs were normalized to relative fluorescence units (RFU) to account for differences in cell number and transfection efficiency and then normalized to the vehicle control. Results are expressed as fold activation relative to the vehicle control.
(§2) Concentration–response data were analyzed in GraphPad Prism version 10 by three-parameter logistic nonlinear regression, with the Hill slope constrained to a theoretical value of −1.0. An IC50 value was determined only for compounds yielding a statistically reliable fit. […] In these cases, only the maximal inhibition achieved at the highest tested concentration (I max(%) at 5 μM) is reported, calculated as follows: Imax(%)=(1−Bottom/Top)×100 (“top” = baseline activity measured at the lowest concentration, “bottom” = residual activity observed at the highest concentration, corresponding to the maximal inhibitory effect).

full-length human RORγ = molecular target: T2, full-length human RORγ (Homo sapiens, UniProt P51449); experiment: Full-length RORγ luciferase assay (RORE-LUC reporter); assay type: cell-based; conditions: HEK293 cells, 5 μM
T2 construct: Encodes for the full-length human RORγ; expressed in transfected cells; host or cells: HEK293
T2 sequence (P51449 1-518): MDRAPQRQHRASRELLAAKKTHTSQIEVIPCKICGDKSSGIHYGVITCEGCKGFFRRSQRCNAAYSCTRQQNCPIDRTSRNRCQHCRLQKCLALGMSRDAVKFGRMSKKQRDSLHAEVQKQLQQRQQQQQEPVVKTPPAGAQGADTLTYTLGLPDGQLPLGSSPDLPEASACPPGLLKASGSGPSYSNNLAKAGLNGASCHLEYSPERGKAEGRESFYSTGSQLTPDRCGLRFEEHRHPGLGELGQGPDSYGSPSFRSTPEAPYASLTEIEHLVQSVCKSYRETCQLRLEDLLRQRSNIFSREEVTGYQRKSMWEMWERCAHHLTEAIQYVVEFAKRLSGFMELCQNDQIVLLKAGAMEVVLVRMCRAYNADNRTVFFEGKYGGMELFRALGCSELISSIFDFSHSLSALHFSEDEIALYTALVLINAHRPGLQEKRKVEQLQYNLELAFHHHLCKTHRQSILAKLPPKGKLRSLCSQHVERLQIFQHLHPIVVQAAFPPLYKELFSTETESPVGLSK
Description: as §1, §2

hRORγ LBD = molecular target: T3, hRORγ LBD (Homo sapiens, UniProt P51449); experiment: Thermal stability by nano differential scanning fluorimetry (nanoDSF); assay type: binding; conditions: RORγ-LBD with 4 equiv ligand vs without ligand; mean ± SD
T3 construct: His tag (N, cleaved yes); made in house; host or cells: Escherichia coli BL21 DE3
T3 sequence (P51449 264-518): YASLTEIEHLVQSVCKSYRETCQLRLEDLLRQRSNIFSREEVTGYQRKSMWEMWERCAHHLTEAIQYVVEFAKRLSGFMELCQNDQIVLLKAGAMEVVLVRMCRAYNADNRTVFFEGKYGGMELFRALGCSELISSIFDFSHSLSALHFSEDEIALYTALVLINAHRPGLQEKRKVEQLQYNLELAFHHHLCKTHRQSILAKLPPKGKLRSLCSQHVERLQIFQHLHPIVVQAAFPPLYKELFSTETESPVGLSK
Description: Soluble proteins were purified on Ni Hitrap FFcrude column (Cytiva), followed by His tag removal by thrombin (MP Biomedicals) cleavage and by size exclusion chromatography on HiLoad Superdex200 column (Cytiva) equilibrated in 20 mM Tris-HCl pH 7.5, 150 mM NaCl, 1 mM TCEP (Hampton Research). Purity and homogeneity of the hRORγ LBD were assessed by SDS-PAGE. The purified protein was concentrated to 0.5–1.0 mg/mL with an Amicon Ultra 10 kDa MWCO. The aliquots of purified LBD were incubated with 4 equiv ligands or vehicle for thermal stability experiments.
Fluorescence-based thermal experiments were performed using a Prometheus NT.48 (NanoTemper Technologies, Germany) with grade standard capillaries containing 10 μL of RORγLBD with different ligands. […] NanoTemper PR. Stability Analysis v1.0.2 was used to fit the data and determine the melting temperatures Tm.

HEK293 cells = experiment: Resazurin conversion assay in HEK293 cells; assay type: cell-based, human; conditions: 5 μM, 18 h
Description: (§3) To check the metabolic activity of cells correlating with cell viability, cells were treated with the vehicle control (0.1% DMSO), digitonin as the positive control for cytotoxicity at 20 μg/mL (HEK293 cells) or 50 μg/mL (EL-4-mRORγt cells), or the compounds of interest at 5 μM for 18 h (HEK293 cells) or 20–24 h (EL-4-mRORγt cells). The next day, the medium was carefully removed and replaced with stripped DMEM without phenol red, containing 10 μg/mL resazurin sodium salt. Cells were incubated for 5 h before RFU values were measured at λem = 590 nm using a spectrophotometer. Cell viability was calculated as follows: Cell viability(%)=100×RFU value after compound treatment/RFU value after vehicle control treatment Cytotoxicity was defined as cell viability under 70% according to the ISO 10993–5 guidelines. Cell viability <90% is explicitly stated in the respective figure.

EL-4-mRORγt cells = experiment: Resazurin conversion assay in EL-4-mRORγt cells; assay type: cell-based, murine; conditions: 5 μM, 20-24 h
Description: as §3

[1] = test system: Il17a and Il17f (Il17a/f); experiment: RT-qPCR of Il17a and Il17f in EL-4-mRORγt cells; assay type: cell-based, murine; conditions: 5 μM, 20–24 h, then 4.5-h PMA and ionomycin
Description: For RT-qPCR assays, 5 × 10^5 EL-4-mRORγt cells were seeded in 500 μL complete DMEM per well of a 24-well plate and treated with the vehicle control, the positive control, or the compounds of interest. After incubation for 20–24 h, cells were stimulated with Cell Activation Cocktail (PMA: 40.5 μM, ionomycin: 669.3 μM; 500X) for 4.5 h. Afterward, total RNA was isolated using the innuPREP RNA Mini Kit 2.0 according to the manufacturer’s instructions. According to the manufacturer’s instructions, 1 μg RNA was reverse-transcribed into cDNA using the High-Capacity cDNA Reverse Transcription Kit. RT-qPCR was performed using the Luna Universal qPCR Master Mix on a LightCycler 480 (Roche Diagnostics, Rotkreuz, Switzerland) according to the manufacturer’s instructions. […] Livak’s 2−ΔΔCt method was employed to determine the expression levels of RORγ target genes. This involved normalizing the target gene expression to the expression levels of the control gene 18s, followed by further normalization to the vehicle control.

Gal4-RORγ H479L = molecular target: T4, Gal4-RORγ H479L (Homo sapiens, UniProt P51449, H479L); experiment: Gal4-RORγ H479L mutant luciferase assay; conditions: 5 μM
T4 sequence (P51449 269-508 H479L limits assumed): T1 sequence (P51449 269-508 limits assumed) with H211L
Description: Gal4-hRORγ H323A and H479L mutants were generated using the QuikChange Lightning Site-Directed Mutagenesis Kit according to the manufacturer’s instructions. Briefly, 10 ng template DNA (Gal4-hRORγ) was PCR-amplified with the respective mutagenic forward and reverse primers listed in Table S3, which were designed using the QuikChange Primer Design tool (https://www.agilent.com/store/primerDesignProgram.jsp). […] Two μL of the PCR product were then transformed into XL1-Blue competent E. coli according to a protocol provided by NEB. […] After centrifuging the main culture at 5691g for 10 min, the supernatant was decanted, and plasmid preparation was performed using the PureLink HiPure Plasmid Midiprep Kit according to the manufacturer’s instructions. DNA yields and purities were checked using a NanoDrop 2000c (Thermo Fisher Scientific, Waltham, MA, USA).

In the case of `C=C(C)[C@@H]1CC[C@]2(C(=O)O)CC[C@]3(C)[C@H](CC[C@@H]4[C@@]5(C)CC[C@H](O)C(C)(C)[C@@H]5CC[C@]43C)[C@@H]12` [Betulinic acid, reference compound], the “Imax(%) at 5 μM, Gal4-RORγ luciferase assay” value (Gal4-hRORγ; 5 μM) is reported as 47%, the IC50 (Gal4-hRORγ; 18 h treatment, up to 5 μM) is reported as 1.2 µM and the “Imax(%) at 5 μM, full-length RORγ luciferase assay” value (full-length human RORγ) is reported as 38%. The “ΔTm measured with nano differential scanning fluorimetry” value (hRORγ LBD) was 9.1 ± 0.2 °C, the “Cytotoxic effects, resazurin conversion assay” value (HEK293 cells) was “no cytotoxic effects” and the “Cytotoxic effects, resazurin conversion assay” value (EL-4-mRORγt cells) was “no cytotoxic effects”. For the same compound, the Il17a/f expression [1] was “reduction of Il17a/f expression” and the “Activity on Gal4-RORγ H479L vs WT” value (Gal4-RORγ H479L) was “notable decrease in activity”.
